Test results taken from PubChem BioAssay AID212 (DTP/NCI, 2004).
“And” between values parts separate entries of the source, which are not always exact repeats. Equal entries are not always repeated. Inconclusive results are not listed.

Tested on: BDF1 mice, colon carcinoma 38 sc, T/C %
Experiment: NCI In Vivo Anticancer Drug Screen. Data for tumor model Colon Carcinoma 38 (subcutaneous) in B6D2F1 (BDF1) mice
Details: endpoint: median tumor weight (est.), higher = larger tumour
Summary of the method: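 Transplantable tumor in mice; compound-treated vs vehicle-dosed controls. Measured survival or tumor size; value = T ÷ C.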

[1] = dose: 50.0 mg/kg/injection, schedule: Q07DX002 (ip), vehicle: Klucel (hydroxypropylcellulose) (HPC)
[2] = dose: 100.0 mg/kg/injection, schedule: Q07DX002 (ip), vehicle: Klucel (hydroxypropylcellulose) (HPC)
[3] = dose: 200.0 mg/kg/injection, schedule: Q07DX002 (ip), vehicle: Klucel (hydroxypropylcellulose) (HPC)
[4] = dose: 400.0 mg/kg/injection, schedule: Q07DX002 (ip), vehicle: Klucel (hydroxypropylcellulose) (HPC)
[5] = dose: 2.0 mg/kg/injection, schedule: Q07DX002 (ip), vehicle: saline
[6] = dose: 50.0 mg/kg/injection, schedule: Q07DX002 (ip), vehicle: other
[7] = dose: 100.0 mg/kg/injection, schedule: Q07DX002 (ip), vehicle: other

CCCCCCCCCCCCN1C(C)=CS/C1=C\C=C\c1scc(C)[n+]1CCCCCCCCCCCC
T/C (dose: 0.78 mg/kg/injection, schedule: Q07DX002 (ip), vehicle: saline with Tween-80): 124 % of control | T/C (dose: 1.56 mg/kg/injection, schedule: Q07DX002 (ip), vehicle: saline with Tween-80): 98 % of control | T/C (dose: 3.12 mg/kg/injection, schedule: Q07DX002 (ip), vehicle: saline with Tween-80): 79 % of control | T/C (dose: 6.25 mg/kg/injection, schedule: Q07DX002 (ip), vehicle: saline with Tween-80): 88 % of control | T/C (dose: 12.0 mg/kg/injection, schedule: Q07DX002 (ip), vehicle: saline with Tween-80): 101 % of control | T/C (dose: 12.5 mg/kg/injection, schedule: Q07DX002 (ip), vehicle: saline with Tween-80): 120 % of control

NS(=O)(=O)c1cc2c(cc1Cl)NC=NS2(=O)=O
T/C (dose: 75.0 mg/kg/injection, schedule: Q07DX002 (ip), vehicle: Klucel (hydroxypropylcellulose) (HPC)): 120 % of control | T/C (dose: 150.0 mg/kg/injection, schedule: Q07DX002 (ip), vehicle: Klucel (hydroxypropylcellulose) (HPC)): 113 % of control | T/C (dose: 300.0 mg/kg/injection, schedule: Q07DX002 (ip), vehicle: Klucel (hydroxypropylcellulose) (HPC)): 90 % of control | T/C (dose: 1200.0 mg/kg/injection, schedule: Q07DX002 (ip), vehicle: Klucel (hydroxypropylcellulose) (HPC)): 60 % of control

NC(=S)c1cn(C2OC(CO)C(O)C2O)c2ncnc(N)c12 (stereo unspecified)
T/C (dose: 1.25 mg/kg/injection, schedule: Q07DX002 (ip), vehicle: suspension in saline): 108 % of control | T/C (dose: 2.5 mg/kg/injection, schedule: Q07DX002 (ip), vehicle: suspension in saline): 81 % of control | T/C (dose: 5.0 mg/kg/injection, schedule: Q07DX002 (ip), vehicle: suspension in saline): 104 % of control | T/C (dose: 10.0 mg/kg/injection, schedule: Q07DX002 (ip), vehicle: suspension in saline): 82 % of control

Clc1ccc(C2SC=Cc3ccccc32)cc1 (stereo unspecified)
T/C [1]: 56 % of control | T/C [2]: 47 % of control | T/C [3]: 57 % of control | T/C [4]: 93 % of control

C=C(OC1C(C)=C2C(C1OC(=O)CCCCCCC)C(C)(OC(C)=O)CC(OC(=O)CCC)C1(O)C2OC(=O)C1(C)O)/C(C)=C/C (stereo unspecified)
T/C (dose: 0.21 mg/kg/injection, schedule: Q07DX002 (ip), vehicle: Klucel (hydroxypropylcellulose) (HPC)): 35 % of control | T/C (dose: 0.84 mg/kg/injection, schedule: Q07DX002 (ip), vehicle: Klucel (hydroxypropylcellulose) (HPC)): 82 % of control and 86 % of control and 92 % of control

CCC(=O)N(C)[C@@H](C)C(=O)O[C@H]1CC(=O)N(C)c2cc(cc(OC)c2Cl)C/C(C)=C/C=C[C@@H](OC)[C@@]2(O)C[C@H](OC(=O)N2)[C@@H](C)[C@@H]2O[C@@]12C
T/C (dose: 7.5 micrograms/kg/injection, schedule: Q07DX002 (ip), vehicle: saline + alcohol): 62 % of control | T/C (dose: 30.0 micrograms/kg/injection, schedule: Q07DX002 (ip), vehicle: saline + alcohol): 84 % of control | T/C (dose: 120.0 micrograms/kg/injection, schedule: Q07DX002 (ip), vehicle: saline + alcohol): 108 % of control

CN(C)c1ccc2c(NCCCCCCNc3ccnc4cc(N(C)C)ccc34)ccnc2c1
T/C (dose: 3.12 mg/kg/injection, schedule: Q07DX002 (ip), vehicle: distilled water + Tween-80 + alcohol): 81 % of control | T/C (dose: 6.25 mg/kg/injection, schedule: Q07DX002 (ip), vehicle: distilled water + Tween-80 + alcohol): 77 % of control | T/C (dose: 12.5 mg/kg/injection, schedule: Q07DX002 (ip), vehicle: distilled water + Tween-80 + alcohol): 62 % of control | T/C (dose: 25.0 mg/kg/injection, schedule: Q07DX002 (ip), vehicle: distilled water + Tween-80 + alcohol): 62 % of control | T/C (dose: 50.0 mg/kg/injection, schedule: Q07DX002 (ip), vehicle: distilled water + Tween-80 + alcohol): 47 % of control | T/C (dose: 100.0 mg/kg/injection, schedule: Q07DX002 (ip), vehicle: distilled water + Tween-80 + alcohol): 20 % of control

N#Cc1cn(C2OC(CO)C(O)C2O)c2ncnc(N)c12 (stereo unspecified)
T/C (dose: 0.12 mg/kg/injection, schedule: Q07DX002 (ip), vehicle: saline): 91 % of control | T/C (dose: 0.25 mg/kg/injection, schedule: Q07DX002 (ip), vehicle: saline): 77 % of control | T/C (dose: 1.0 mg/kg/injection, schedule: Q07DX002 (ip), vehicle: saline): 86 % of control | T/C [5]: 59 % of control

O=C1C(=O)c2ccccc2C(O)=C1CC=C(Cl)Cl
T/C (dose: 25.0 mg/kg/injection, schedule: Q07DX002 (ip), vehicle: other): 81 % of control | T/C [6]: 90 % of control | T/C [7]: 124 % of control | T/C (dose: 200.0 mg/kg/injection, schedule: Q07DX002 (ip), vehicle: other): 190 % of control

C[n+]1cccc(NC(=O)c2ccc(NC(=O)C34CCC(C(=O)Nc5ccc(C(=O)Nc6ccc[n+](C)c6)cc5)(CC3)CC4)cc2)c1
T/C (dose: 10.0 mg/kg/injection, schedule: Q07DX002 (ip), vehicle: saline with Tween-80): 60 % of control | T/C (dose: 20.0 mg/kg/injection, schedule: Q07DX002 (ip), vehicle: saline with Tween-80): 57 % of control | T/C (dose: 22.5 mg/kg/injection, schedule: Q07DX002 (ip), vehicle: saline with Tween-80): 93 % of control | T/C (dose: 40.0 mg/kg/injection, schedule: Q07DX002 (ip), vehicle: saline with Tween-80): 28 % of control | T/C (dose: 45.0 mg/kg/injection, schedule: Q07DX002 (ip), vehicle: saline with Tween-80): 71 % of control | T/C (dose: 80.0 mg/kg/injection, schedule: Q07DX002 (ip), vehicle: saline with Tween-80): 20 % of control | T/C (dose: 90.0 mg/kg/injection, schedule: Q07DX002 (ip), vehicle: saline with Tween-80): 109 % of control

ClC(Cl)=C(Cl)Cl
T/C (dose: 28.0 mg/kg/injection, schedule: Q07DX002 (ip), vehicle: saline with Tween-80): 88 % of control and 103 % of control | T/C [6]: 79 % of control | T/C (dose: 56.0 mg/kg/injection, schedule: Q07DX002 (ip), vehicle: saline with Tween-80): 79 % of control and 100 % of control | T/C [7]: 109 % of control and 112 % of control | T/C (dose: 112.0 mg/kg/injection, schedule: Q07DX002 (ip), vehicle: saline with Tween-80): 52 % of control | T/C (dose: 400.0 mg/kg/injection, schedule: Q07DX002 (ip), vehicle: other): 91 % of control | T/C (dose: 800.0 mg/kg/injection, schedule: Q07DX002 (ip), vehicle: other): 71 % of control

Nc1nc(N)c2cc(CNc3ccc(C(=O)NC(CC(=O)O)CC(=O)O)cc3)ccc2n1
T/C (dose: 25.0 mg/kg/injection, schedule: Q07DX002 (ip), vehicle: Klucel (hydroxypropylcellulose) (HPC)): 120 % of control | T/C [1]: 97 % of control | T/C [2]: 60 % of control | T/C [3]: 114 % of control | T/C [4]: 76 % of control

CC1CC2OC2/C=C\C=C\C(=O)Cc2c(Cl)c(O)cc(O)c2C(=O)O1 (stereo unspecified)
T/C (dose: 30.0 mg/kg/injection, schedule: Q07DX002 (ip), vehicle: Klucel (hydroxypropylcellulose) (HPC)): 72 % of control | T/C (dose: 60.0 mg/kg/injection, schedule: Q07DX002 (ip), vehicle: Klucel (hydroxypropylcellulose) (HPC)): 74 % of control | T/C (dose: 120.0 mg/kg/injection, schedule: Q07DX002 (ip), vehicle: Klucel (hydroxypropylcellulose) (HPC)): 105 % of control

Nc1ccc2nc3ccc(N)cc3[n+](-c3ccccc3)c2c1
T/C [5]: 95 % of control | T/C (dose: 4.0 mg/kg/injection, schedule: Q07DX002 (ip), vehicle: saline): 74 % of control | T/C (dose: 4.0 mg/kg/injection, schedule: Q07DX003 (ip), vehicle: saline): 28 % of control | T/C (dose: 8.0 mg/kg/injection, schedule: Q07DX002 (ip), vehicle: saline): 96 % of control | T/C (dose: 8.0 mg/kg/injection, schedule: Q07DX003 (ip), vehicle: saline): 43 % of control | T/C (dose: 16.0 mg/kg/injection, schedule: Q07DX002 (ip), vehicle: saline): 72 % of control | T/C (dose: 16.0 mg/kg/injection, schedule: Q07DX003 (ip), vehicle: saline): 46 % of control | T/C (dose: 32.0 mg/kg/injection, schedule: Q07DX002 (ip), vehicle: saline): 97 % of control | T/C (dose: 32.0 mg/kg/injection, schedule: Q07DX003 (ip), vehicle: saline): 43 % of control

CC1=C/C(O)CC(=O)Cc2nc(co2)C(=O)N2CCC=C2C(=O)OC(C(C)C)C(C)/C=C\C(=O)NC/C=C\1 (stereo unspecified)
T/C [1]: 109 % of control | T/C [4]: 102 % of control | T/C (dose: 800.0 mg/kg/injection, schedule: Q07DX002 (ip), vehicle: Klucel (hydroxypropylcellulose) (HPC)): 117 % of control
